Experiments:
[1] = biological target: CDK2/Cyclin A2 (Homo sapiens) (UniProt P24941+P20248); assay: Inhibition of CDK2/CyclinA2 (unknown origin) at 100 nM preincubated for 15 mins followed by substrate and ATP addition incubated for 10 mins by ADP-glo luminescent assay relative to control; assay type: protein-complex assay; settings: time 25.0 min
[2] = biological target: CDK6/cyclin D3 (Homo sapiens) (UniProt P30281+Q00534); assay: Inhibition of CDK6/CyclinD3 (unknown origin) at 100 nM preincubated for 15 mins followed by substrate and ATP addition incubated for 10 mins by ADP-glo luminescent assay relative to control; assay type: protein-complex assay; settings: time 25.0 min
MDA-MB-231 [3] = assay: cells; settings: Homo sapiens, MDA-MB-231, 48 h
Description: Antiproliferative activity against human MDA-MB-231 cells assessed as inhibition of cell growth incubated for 48 hrs by CCK-8 assay

HepG2 = assay: cells; settings: Homo sapiens, HepG2, 48 h
Description: Antiproliferative activity against human HepG2 cells assessed as inhibition of cell growth incubated for 48 hrs by CCK-8 assay

HCT-116 = assay: cells; settings: Homo sapiens, HCT-116, 48 h
Description: Antiproliferative activity against human HCT-116 cells assessed as inhibition of cell growth incubated for 48 hrs by CCK-8 assay

A549 = assay: cells; settings: Homo sapiens, A549, 48 h
Description: Antiproliferative activity against human A549 cells assessed as inhibition of cell growth incubated for 48 hrs by CCK-8 assay

[4] = Clearance in Sprague-Dawley rat at 10 mg/kg,iv administration measured upto 24 hrs by LC-MS/MS analysis; assay type: ADME, organism-based; settings: in vivo
[5] = MRT (0 to t) in Sprague-Dawley rat at 10 mg/kg,iv administration measured upto 24 hrs by LC-MS/MS analysis; assay type: ADME, organism-based; settings: in vivo
[6] = Intrinsic clearance in human liver microsomes in presence of NADPH incubated for 5 to 45 mins by LC/MS analysis; assay type: ADME, Microsome; settings: time 5-45 min, read-out: CLH
[7] = Tmax in Sprague-Dawley rat at 10 mg/kg,iv administration measured upto 24 hrs by LC-MS/MS analysis; assay type: ADME, organism-based; settings: in vivo
MDA-MB-231 [8] = assay: Antitumor activity against human MDA-MB-231 cells xenografted in BALB/c mouse assessed as tumor growth inhibition at 40 mg/kg,ip administrated for 21 consecutive days; assay type: functional; settings: read-out: TGI
[9] = AUC (0 to t) in Sprague-Dawley rat at 10 mg/kg,iv administration measured upto 24 hrs by LC-MS/MS analysis; assay type: ADME, organism-based; settings: in vivo
[10] = Half life in Sprague-Dawley rat at 10 mg/kg,iv administration measured upto 24 hrs by LC-MS/MS analysis; assay type: ADME, organism-based; settings: in vivo
[11] = Cmax in Sprague-Dawley rat at 10 mg/kg,iv administration measured upto 24 hrs by LC-MS/MS analysis; assay type: ADME, organism-based; settings: in vivo
[12] = Half life in human liver microsomes in presence of NADPH incubated for 5 to 45 mins by LC/MS analysis; assay type: ADME, Microsome; settings: time 5-45 min

Compound | inhibition [1] [%] | inhibition [2] [%] | IC50 (MDA-MB-231 [3]) [µM] | IC50 (HepG2) [µM] | IC50 (HCT-116) [µM] | IC50 (A549) [µM] | clearance [4] [mL/min/kg] | MRT last at 24 h [5] [h] | CLint scaled [6] [mL/min/kg] | Tmax [7] [h] | inhibition in vivo at 40 mg/kg (MDA-MB-231 [8]) [%] | AUC(0-t) at 24 h [9] [ng·h/mL] | half-life [10] [h] | Cmax [11] [ng/mL] | half-life [12] [s]
O=C(CCn1cc(COc2ccc(N(C(=O)CCl)C(C(=O)NCCc3ccccc3)c3cccs3)cc2Cl)nn1)NCCCO/N=C1/C(=C2/C(=O)Nc3cc(Br)ccc32)Nc2ccccc21 (stereo unspecified) | 22.4 | 28.3 | 8.69 | > 10 | > 10 | > 10 |  |  |  |  |  |  |  |  | 
O=C(CCn1cc(COc2ccc(N(C(=O)CCl)C(C(=O)NCCc3ccccc3)c3cccs3)cc2Cl)nn1)O/N=C1/C(=C2/C(=O)Nc3ccccc32)Nc2cc(F)ccc21 (stereo unspecified) | 9.85 | 29.7 | 7.12 | 8.19 | 6.81 | 6.69 |  |  |  |  |  |  |  |  | 
COc1ccc2c(c1)/C(=C1/Nc3ccccc3/C1=N\OCCCNC(=O)CCn1cc(COc3ccc(N(C(=O)CCl)C(C(=O)NCCc4ccccc4)c4cccs4)cc3Cl)nn1)C(=O)N2 (stereo unspecified) | 26.6 | 40 | 2.01 | 4.66 | 1.96 | 4.09 |  |  |  |  |  |  |  |  | 
O=C(CCn1cc(COc2ccc(N(C(=O)CCl)C(C(=O)NCCc3ccccc3)c3cccs3)cc2Cl)nn1)NCCCO/N=C1/C(=C2/C(=O)Nc3cc(F)ccc32)Nc2ccccc21 (stereo unspecified) | 28.9 | 36.8 | 3.96 | 4.12 | 2.91 | 6.6 |  |  |  |  |  |  |  |  | 
O=C(CCn1cc(COc2ccc(N(C(=O)CCl)C(C(=O)NCCc3ccccc3)c3cccs3)cc2Cl)nn1)O/N=C1/C(=C2/C(=O)Nc3ccccc32)Nc2ccc(Br)cc21 (stereo unspecified) | 13.3 | 34.9 | > 10 | > 10 | > 10 | > 10 |  |  |  |  |  |  |  |  | 
O=C(CCn1cc(COc2ccc(N(C(=O)CCl)C(C(=O)NCCc3ccccc3)c3cccs3)cc2Cl)nn1)NCCCO/N=C1/C(=C2/C(=O)Nc3ccc(Br)cc32)Nc2ccccc21 (stereo unspecified) | 15.5 | 21.3 | > 10 | > 10 | 8.77 | > 10 |  |  |  |  |  |  |  |  | 
O=C(CCn1cc(COc2ccc(N(C(=O)CCl)C(C(=O)NCCc3ccccc3)c3cccs3)cc2Cl)nn1)NCCCO/N=C1/C(=C2/C(=O)Nc3cc(Cl)ccc32)Nc2ccccc21 (stereo unspecified) | 31 | 38.5 | 7.46 | 9 | 7.17 | 9.09 |  |  |  |  |  |  |  |  | 
O=C(CCn1cc(COc2ccc(N(C(=O)CCl)C(C(=O)NCCc3ccccc3)c3cccs3)cc2Cl)nn1)O/N=C1/C(=C2/C(=O)Nc3ccccc32)Nc2cc(Br)ccc21 (stereo unspecified) | 5.41 | 14.7 | > 10 | > 10 | > 10 | > 10 |  |  |  |  |  |  |  |  | 
O=C(CCn1cc(COc2ccc(N(C(=O)CCl)C(C(=O)NCCc3ccccc3)c3cccs3)cc2Cl)nn1)NCCCO/N=C1/C(=C2/C(=O)Nc3cc(F)c(F)cc32)Nc2ccccc21 (stereo unspecified) | 1.12 | 16.1 | > 10 | > 10 | 9.63 | 8.32 |  |  |  |  |  |  |  |  | 
O=C(CCn1cc(COc2ccc(N(C(=O)CCl)C(C(=O)NCCc3ccccc3)c3cccs3)cc2Cl)nn1)NCCCO/N=C1/C(=C2/C(=O)Nc3cc(Cl)c(Cl)cc32)Nc2ccccc21 (stereo unspecified) | 14 | 12.8 | > 10 | > 10 | > 10 | > 10 |  |  |  |  |  |  |  |  | 
O=C(CCn1cc(COc2ccc(N(C(=O)CCl)C(C(=O)NCCc3ccccc3)c3cccs3)cc2Cl)nn1)O/N=C1/C(=C2/C(=O)Nc3ccccc32)Nc2ccc(Cl)cc21 (stereo unspecified) | 13.5 | 40.4 | 5.25 | 7.16 | 4.44 | 5.15 |  |  |  |  |  |  |  |  | 
O=C(CCn1cc(COc2ccc(N(C(=O)CCl)C(C(=O)NCCc3ccccc3)c3cccs3)cc2Cl)nn1)O/N=C1/C(=C2/C(=O)Nc3ccccc32)Nc2cc(Cl)c(Cl)cc21 (stereo unspecified) | 5.9 | 10.4 | > 10 | > 10 | > 10 | > 10 |  |  |  |  |  |  |  |  | 
O=C(CCn1cc(COc2ccc(N(C(=O)CCl)C(C(=O)NCCc3ccccc3)c3cccs3)cc2Cl)nn1)O/N=C1/C(=C2/C(=O)Nc3ccccc32)Nc2ccc(F)cc21 (stereo unspecified) | 19.6 | 21.4 | 3.24 | 5.58 | 4.25 | 6.37 |  |  |  |  |  |  |  |  | 
COc1ccc(N(C(=O)CCl)C(C(=O)NCCc2ccccc2)c2cccs2)cc1Cl (stereo unspecified) |  |  | 2.27 | 3.71 | 4.14 | 2.09 | 20.8 | 1.8 | 2680 | 0.8 | 60.9 | 8020 | 1.7 | 8530 | 36
COc1ccc2c(c1)C(=N\OC(=O)CCn1cc(COc3ccc(N(C(=O)CCl)C(C(=O)NCCc4ccccc4)c4cccs4)cc3Cl)nn1)/C(=C1/C(=O)Nc3ccccc31)N2 (stereo unspecified) | 14.1 | 22 | 4.65 | 8.36 | 6.97 | 7.04 |  |  |  |  |  |  |  |  | 
COc1ccc2c(c1)NC(=C1\C(=O)Nc3ccccc31)/C2=N/OC(=O)CCn1cc(COc2ccc(N(C(=O)CCl)C(C(=O)NCCc3ccccc3)c3cccs3)cc2Cl)nn1 (stereo unspecified) | 12.6 | 47 | 3.88 | 7.88 | 4.03 | 4.6 |  |  |  |  |  |  |  |  | 
O=C(CCn1cc(COc2ccc(N(C(=O)CCl)C(C(=O)NCCc3ccccc3)c3cccs3)cc2Cl)nn1)O/N=C1/C(=C2/C(=O)Nc3ccccc32)Nc2cc(Br)c(Br)cc21 (stereo unspecified) | 1.46 | 9.29 | > 10 | > 10 | > 10 | > 10 |  |  |  |  |  |  |  |  | 
O=C(CCn1cc(COc2ccc(N(C(=O)CCl)C(C(=O)NCCc3ccccc3)c3cccs3)cc2Cl)nn1)NCCCO/N=C1/C(=C2/C(=O)Nc3ccc(Cl)cc32)Nc2ccccc21 (stereo unspecified) | 28.1 | 39.4 | 5.65 | 4.83 | 4.25 | 2.67 |  |  |  |  |  |  |  |  | 
O=C(CCn1cc(COc2ccc(N(C(=O)CCl)C(C(=O)NCCc3ccccc3)c3cccs3)cc2Cl)nn1)O/N=C1/C(=C2/C(=O)Nc3ccccc32)Nc2cc(Cl)ccc21 (stereo unspecified) | 8.53 | 37.1 | 7.78 | 7.51 | 7.32 | 6.27 |  |  |  |  |  |  |  |  | 
O=C(CCn1cc(COc2ccc(N(C(=O)CCl)C(C(=O)NCCc3ccccc3)c3cccs3)cc2Cl)nn1)NCCCO/N=C1/C(=C2/C(=O)Nc3ccc(F)cc32)Nc2ccccc21 (stereo unspecified) | 3.17 | 36.2 | 1.64 | 4.92 | 1.99 | 1.88 |  |  |  |  |  |  |  |  | 
O=C(CCn1cc(COc2ccc(N(C(=O)CCl)C(C(=O)NCCc3ccccc3)c3cccs3)cc2Cl)nn1)NCCCO/N=C1/C(=C2/C(=O)Nc3cc(Br)c(Br)cc32)Nc2ccccc21 (stereo unspecified) | 4.02 | 4.65 | > 10 | > 10 | > 10 | > 10 |  |  |  |  |  |  |  |  | 
O=C(CCn1cc(COc2ccc(N(C(=O)CCl)C(C(=O)NCCc3ccccc3)c3cccs3)cc2Cl)nn1)NCCCO/N=C1/C(=C2/C(=O)Nc3ccccc32)Nc2ccccc21 (stereo unspecified) | 22.1 | 52.1 | 1.2 | 2.02 | 1.49 | 2.85 |  |  |  |  |  |  |  |  | 
O=C(CCn1cc(COc2ccc(N(C(=O)CCl)C(C(=O)NCCc3ccccc3)c3cccs3)cc2Cl)nn1)O/N=C1/C(=C2/C(=O)Nc3ccccc32)Nc2cc(F)c(F)cc21 (stereo unspecified) | 10.5 | 24.4 | > 10 | > 10 | > 10 | > 10 |  |  |  |  |  |  |  |  | 
O=C(CCn1cc(COc2ccc(N(C(=O)CCl)C(C(=O)NCCc3ccccc3)c3cccs3)cc2Cl)nn1)O/N=C1/C(=C2/C(=O)Nc3ccccc32)Nc2ccccc21 (stereo unspecified) | 8.89 | 46.3 | 7.89 | 8.18 | 7.45 | 7.72 |  |  |  |  |  |  |  |  | 

— ChEMBL document CHEMBL5528035, “Design, Synthesis, and Biological Evaluation for First GPX4 and CDK Dual Inhibitors” (J Med Chem, 2024)
